In US20090215778A1, “Alpha-substituted Arylmethyl Piperazine Pyrazolo [1,5-alpha]Pyrimidine Amide Derivatives” (priority 2007, published 2009):

Experiments:
[1] = target: T1, HIV Env six-helix bundle (6HB) structure (Human immunodeficiency virus type 1 group M subtype B, UniProt P04579); assay: Six-helix bundle (6HB) assay; assay type: cell-based, HIV-1 (strain RF)
T1 construct: H9 cells chronically infected with HIV-1 (H9/HIV-1RF); endogenous in cells; host or cells: H9 cells chronically infected with HIV-1 strain RF (Env is made from the virus in the infected cells, not by transfection)
T1 sequence (P04579 32-519): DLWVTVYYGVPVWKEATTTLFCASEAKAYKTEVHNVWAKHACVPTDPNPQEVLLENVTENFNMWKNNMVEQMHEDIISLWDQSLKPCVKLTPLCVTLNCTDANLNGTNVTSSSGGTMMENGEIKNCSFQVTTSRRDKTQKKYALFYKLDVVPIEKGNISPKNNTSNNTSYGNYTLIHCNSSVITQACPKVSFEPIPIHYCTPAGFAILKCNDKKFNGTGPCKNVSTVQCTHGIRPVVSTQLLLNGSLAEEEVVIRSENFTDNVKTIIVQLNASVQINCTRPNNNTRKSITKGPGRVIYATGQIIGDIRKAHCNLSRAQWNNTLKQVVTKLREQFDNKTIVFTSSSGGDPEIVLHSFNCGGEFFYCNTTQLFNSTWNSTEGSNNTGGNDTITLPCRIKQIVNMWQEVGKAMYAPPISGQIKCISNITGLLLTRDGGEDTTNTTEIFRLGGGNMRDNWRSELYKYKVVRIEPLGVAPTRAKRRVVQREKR
T1 sequence (P04579 520-865): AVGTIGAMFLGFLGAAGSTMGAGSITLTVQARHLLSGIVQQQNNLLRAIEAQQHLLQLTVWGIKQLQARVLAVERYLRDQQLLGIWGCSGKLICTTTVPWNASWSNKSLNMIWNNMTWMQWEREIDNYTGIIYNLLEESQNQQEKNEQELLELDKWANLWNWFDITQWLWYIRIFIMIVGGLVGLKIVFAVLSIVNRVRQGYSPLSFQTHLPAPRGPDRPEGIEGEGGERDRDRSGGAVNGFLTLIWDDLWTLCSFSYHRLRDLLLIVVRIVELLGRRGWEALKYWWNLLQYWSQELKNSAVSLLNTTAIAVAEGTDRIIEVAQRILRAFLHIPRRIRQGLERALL
Summary of the method: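 Chronically HIV-1 RF-infected H9 cells (12-40 days post-infection), 2.5×10^5 per well, were preincubated with compound for 30 min at 37 °C. sCD4 at 1 μg/mL was added for 1 h to trigger Env changes. 6HB-specific rabbit serum (1 h, 37 °C) was then added, followed by PE anti-rabbit (45 min, 4 °C), with flow cytometric fluorescence read-out.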

HIV-1, NL4-3 strain = assay: Virus infection assay (virus entry and single-cycle infection); assay type: cell-based; conditions: Human immunodeficiency virus 1, NL43, TZM-b1, read-out: Nl4
Summary of the method: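 TZM-b1 cells (CD4, CXCR4, CCR5; LTR-driven lacZ/luciferase reporters) were infected with HIV-1 NL4-3 (MOI 0.01) with 80 μg/mL DEAE-dextran in the presence of test compound, 4 h at 37 °C before adding complete medium. Infection was quantified one day post-infection as chemiluminescent β-galactosidase signal.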

| Structure (SMILES) | IC50 [1] | IC50 (HIV-1, NL4-3 strain) |
| --- | --- | --- |
| COc1ccc(-c2nc3c(C(=O)N4CCN([C@H](C)c5cc(F)cc(F)c5F)C[C@H]4C)cnn3c(C(F)(F)F)c2C)cc1 [methanone, [5-(4-methoxyphenyl)-6-methyl-7-(trifluoromethyl)pyrazolo[1,5-α]pyrimidin-3-yl][(2R)-2-methyl-4-[(1R)-1-(2,3,5-trifluorophenyl)ethyl]-1-piperazinyl]-] | < 1000 nM | < 1000 nM |
| COc1ccc(-c2nc3c(C(=O)N4CCN(C(CO)c5ccc(Cl)nc5)C[C@H]4C)cnn3c(C(F)(F)F)c2C)cc1 (stereo partly drawn) | < 1000 nM | < 1000 nM |
| COc1ccc(-c2nc3c(C(=O)N4CCN(C(CO)c5cccc(N6CCOCC6)c5)C[C@H]4C)cnn3c(C(F)(F)F)c2C)cc1 (stereo partly drawn) [methanone, [(2R)-4-[2-hydroxy-1-[3-(4-morpholinyl)phenyl]ethyl]-2-methyl-1-piperazinyl][5-(4-methoxyphenyl)-6-methyl-7-(trifluoromethyl)pyrazolo[1,5-α]pyrimidin-3-yl]-] | 1100 to 10000 nM | 1100 to 10000 nM |
| COc1ccc(-c2nc3c(C(=O)N4CCN(C(CN)c5ccccc5)C[C@H]4C)cnn3c(C(F)(F)F)c2C)cc1 (stereo partly drawn) [methanone, [(2R)-4-(2-amino-1-phenylethyl)-2-methyl-1-piperazinyl][5-(4-methoxyphenyl)-6-methyl-7-(trifluoromethyl)pyrazolo[1,5-α]pyrimidin-3-yl]-] | < 1000 nM | < 1000 nM |
| COc1ccc(-c2nc3c(C(=O)N4CCN(C(CO)c5cccc(OC)c5F)C[C@H]4C)cnn3c(C(F)(F)F)c2C)cc1 (stereo partly drawn) [methanone, [(2R)-4-[1-(2-fluoro-3-methoxyphenyl)-2-hydroxyethyl]-2-methyl-1-piperazinyl][5-(4-methoxyphenyl)-6-methyl-7-(trifluoromethyl)pyrazolo[1,5-α]pyrimidin-3-yl]-] | < 1000 nM | < 1000 nM |
| COc1ccc(-c2nc3c(C(=O)N4CCN(C(CO)c5cccc(F)c5F)C[C@H]4C)cnn3c(C(F)(F)F)c2C)cc1 (stereo partly drawn) [methanone, [(2R)-4-[1-(2,3-difluorophenyl)-2-hydroxyethyl]-2-methyl-1-piperazinyl][5-(4-methoxyphenyl)-6-methyl-7-(trifluoromethyl)pyrazolo[1,5-α]pyrimidin-3-yl]-] | < 1000 nM | < 1000 nM |
| COc1ccc(-c2nc3c(C(=O)N4CCN(C(C(=O)N(C)C)c5ccccc5)C[C@H]4C)cnn3c(C(F)(F)F)c2C)cc1 (stereo partly drawn) [1-piperazineacetamide, 4-[[5-(4-methoxyphenyl)-6-methyl-7-(trifluoromethyl)pyrazolo[1,5-α]pyrimidin-3-yl]carbonyl]-N,N,3-trimethyl-α-phenyl-, (3R)-] | < 1000 nM | < 1000 nM |
| COc1ccc(-c2nc3c(C(=O)N4CCN([C@@H](CO)c5ccccc5)C[C@H]4C)cnn3c(C(F)(F)F)c2F)cc1 [methanone, [6-fluoro-5-(4-methoxyphenyl)-7-(trifluoromethyl)pyrazolo[1,5-α]pyrimidin-3-yl][(2R)-4-[(1R)-2-hydroxy-1-phenylethyl]-2-methyl-1-piperazinyl]-] | < 1000 nM | < 1000 nM |
| COc1ccc(-c2nc3c(C(=O)N4CCN(C(CO)c5cc6ccccc6o5)C[C@H]4C)cnn3c(C(F)(F)F)c2C)cc1 (stereo partly drawn) [methanone, [(2R)-4-[1-(2-benzofuranyl)-2-hydroxyethyl]-2-methyl-1-piperazinyl][5-(4-methoxyphenyl)-6-methyl-7-(trifluoromethyl)pyrazolo[1,5-α]pyrimidin-3-yl]-] | < 1000 nM | < 1000 nM |
| COc1ccc(-c2nc3c(C(=O)N4CCN(C(CNC(C)=O)c5ccccc5)C[C@H]4C)cnn3c(C(F)(F)F)c2C)cc1 (stereo partly drawn) [acetamide, N-[2-[(3R)-4-[[5-(4-methoxyphenyl)-6-methyl-7-(trifluoromethyl)pyrazolo[1,5-α]pyrimidin-3-yl]carbonyl]-3-methyl-1-piperazinyl]-2-phenylethyl]-] | < 1000 nM | < 1000 nM |
| COc1ccc(-c2nc3c(C(=O)N4CCN(C(CO)c5ccccc5NC(N)=O)C[C@H]4C)cnn3c(C(F)(F)F)c2C)cc1 (stereo partly drawn) [urea, N-[2-[2-hydroxy-1-[(3R)-4-[[5-(4-methoxyphenyl)-6-methyl-7-(trifluoromethyl)pyrazolo[1,5-α]pyrimidin-3-yl]carbonyl]-3-methyl-1-piperazinyl]ethyl]phenyl]-] | > 10100 nM | > 10100 nM |
| COc1ccc(-c2nc3c(C(=O)N4CCN(C(CO)c5cccc(S(N)(=O)=O)c5)C[C@H]4C)cnn3c(C(F)(F)F)c2C)cc1 (stereo partly drawn) [benzenesulfonamide, 3-[2-hydroxy-1-[(3R)-4-[[5-(4-methoxyphenyl)-6-methyl-7-(trifluoromethyl)pyrazolo[1,5-α]pyrimidin-3-yl]carbonyl]-3-methyl-1-piperazinyl]ethyl]-] | > 10100 nM | > 10100 nM |
| COc1ccc(-c2nc3c(C(=O)N4CCN([C@@H](C)c5ccncc5)C[C@H]4C)cnn3c(C(F)(F)F)c2C)cc1 [methanone, [5-(4-methoxyphenyl)-6-methyl-7-(trifluoromethyl)pyrazolo[1,5-α]pyrimidin-3-yl][(2R)-2-methyl-4-[(1S)-1-(4-pyridinyl)ethyl]-1-piperazinyl]-] | < 1000 nM | < 1000 nM |
| COc1ccc(-c2nc3c(C(=O)N4CCN(C(CO)c5cccc(N)c5)C[C@H]4C)cnn3c(C(F)(F)F)c2C)cc1 (stereo partly drawn) [methanone, [(2R)-4-[1-(3-aminophenyl)-2-hydroxyethyl]-2-methyl-1-piperazinyl][5-(4-methoxyphenyl)-6-methyl-7-(trifluoromethyl)pyrazolo[1,5-α]pyrimidin-3-yl]-] | < 1000 nM | < 1000 nM |
| COc1ccc(-c2nc3c(C(=O)N4CCN(C(CO)c5cc(C(C)=O)ccc5F)C[C@H]4C)cnn3c(C(F)(F)F)c2C)cc1 (stereo partly drawn) [ethanone, 1-[4-fluoro-3-[2-hydroxy-1-[(3R)-4-[[5-(4-methoxyphenyl)-6-methyl-7-(trifluoromethyl)pyrazolo[1,5-α]pyrimidin-3-yl]carbonyl]-3-methyl-1-piperazinyl]ethyl]phenyl]-] | < 1000 nM | < 1000 nM |
| COc1ccc(-c2nc3c(C(=O)N4CCN(C(CO)c5cccc(F)c5)C[C@H]4C)cnn3c(C(F)(F)F)c2C)cc1 (stereo partly drawn) [methanone, [(2R)-4-[1-(3-fluorophenyl)-2-hydroxyethyl]-2-methyl-1-piperazinyl][5-(4-methoxyphenyl)-6-methyl-7-(trifluoromethyl)pyrazolo[1,5-α]pyrimidin-3-yl]-] | < 1000 nM | < 1000 nM |
| COc1ccc(-c2nc3c(C(=O)N4CCN(C(CO)c5cc(F)cc(F)c5F)C[C@H]4C)cnn3c(C(F)(F)F)c2C)cc1 (stereo partly drawn) [methanone, [(2R)-4-[2-hydroxy-1-(2,3,5-trifluorophenyl)ethyl]-2-methyl-1-piperazinyl][5-(4-methoxyphenyl)-6-methyl-7-(trifluoromethyl)pyrazolo[1,5-α]pyrimidin-3-yl]-] | < 1000 nM | < 1000 nM |
| COc1ccc(-c2nc3c(C(=O)N4CCN(C(CO)c5cc(OC)ccc5OC)C[C@H]4C)cnn3c(C(F)(F)F)c2C)cc1 (stereo partly drawn) [methanone, [(2R)-4-[1-(2,5-dimethoxyphenyl)-2-hydroxyethyl]-2-methyl-1-piperazinyl][5-(4-methoxyphenyl)-6-methyl-7-(trifluoromethyl)pyrazolo[1,5-α]pyrimidin-3-yl]-] | 1100 to 10000 nM | < 1000 nM |
| COc1ccc(-c2nc3c(C(=O)N4CCN(C(CO)c5cccc(NC(C)=O)c5)C[C@H]4C)cnn3c(C(F)(F)F)c2C)cc1 (stereo partly drawn) [acetamide, N-[3-[2-hydroxy-1-[(3R)-4-[[5-(4-methoxyphenyl)-6-methyl-7-(trifluoromethyl)pyrazolo[1,5-α]pyrimidin-3-yl]carbonyl]-3-methyl-1-piperazinyl]ethyl]phenyl]-] | < 1000 nM | < 1000 nM |
| CCc1ccc(-c2nc3c(C(=O)N4CCN([C@@H](CO)c5ccccc5)C[C@H]4C)cnn3c(C(F)(F)F)c2C)cc1 [methanone, [5-(4-ethylphenyl)-6-methyl-7-(trifluoromethyl)pyrazolo[1,5-α]pyrimidin-3-yl][(2R)-4-[(1R)-2-hydroxy-1-phenylethyl]-2-methyl-1-piperazinyl]-] | < 1000 nM | < 1000 nM |
| COc1ccc(-c2nc3c(C(=O)N4CCN([C@@H](C)c5cccc(C#N)c5)C[C@H]4C)cnn3c(C(F)(F)F)c2C)cc1 | < 1000 nM | < 1000 nM |
| COc1ccc(-c2nc3c(C(=O)N4CCN([C@@H](CO)c5ccc(C(C)=O)s5)C[C@H]4C)cnn3c(C(F)(F)F)c2C)cc1 [ethanone, 1-[5-[(1S)-2-hydroxy-1-[(3R)-4-[[5-(4-methoxyphenyl)-6-methyl-7-(trifluoromethyl)pyrazolo[1,5-α]pyrimidin-3-yl]carbonyl]-3-methyl-1-piperazinyl]ethyl]-2-thienyl]-] | < 1000 nM | 1100 to 10000 nM |
| COc1ccc(-c2nc3c(C(=O)N4CCN(C(CO)c5c(F)ccc(OC)c5F)C[C@H]4C)cnn3c(C(F)(F)F)c2C)cc1 (stereo partly drawn) [methanone, [(2R)-4-[1-(2,6-difluoro-3-methoxyphenyl)-2-hydroxyethyl]-2-methyl-1-piperazinyl][5-(4-methoxyphenyl)-6-methyl-7-(trifluoromethyl)pyrazolo[1,5-α]pyrimidin-3-yl]-] | < 1000 nM | < 1000 nM |
| COc1ccc(-c2nc3c(C(=O)N4CCN(C(CO)c5cccs5)C[C@H]4C)cnn3c(C(F)(F)F)c2C)cc1 (stereo partly drawn) [methanone, [(2R)-4-[2-hydroxy-1-(2-thienyl)ethyl]-2-methyl-1-piperazinyl][5-(4-methoxyphenyl)-6-methyl-7-(trifluoromethyl)pyrazolo[1,5-α]pyrimidin-3-yl]-] | < 1000 nM | < 1000 nM |
